# Measurements from US11612627B2, “Method for preventing or treating thrombosis” (ANDONG NATIONAL UNIVERSITY INDUSTRY-ACADEMIC COOPERATION …, priority 2020, dated 2023).
# “And” between values parts separate entries of the source, which are not always exact repeats. Identical values can stand only once.
# Key:
# [1] = system: prothrombin; test: Prothrombin time (plasma clotting); format: biochemical; conditions: clot time sample/clot time DMSO, 3-carene section Table 3
# Method: In an Amelung coagulometer KC-1A tube (Japan), 70 μl of standard plasma (MD Pacific Co., China) was heated, together with 10 μl of each of samples having various concentrations, at 37° C. for 3 min before adding 130 μl of PT reagent thereto. […] This experiment was repeated three times independently. The prothrombin time was expressed as a mean value of the three measurements.
# [2] = system: coagulation factors; test: aPTT (activated partial thromboplastin time); format: biochemical; conditions: clot time sample/clot time DMSO, 3-carene section Table 3
# Method: Subsequently, 50 μl of CaCl2 (35 mM) was added. […] Instead of samples, DMSO served as a solvent control. […] The aPPT was expressed as a mean value of the measurements of three independent experiments.
# Instead of samples, DMSO served as a solvent control. […] The aPPT was expressed as a mean value of the measurements of three independent experiments.
# [3] = system: human erythrocytes; test: Human erythrocyte lysis (hemolysis) activity; format: cell-based
# Method: In this regard, erythrocyte lysis activity was assayed as reported previously (Sohn, Ho-Yong, 2014. Korean J. Microbiol. Biotechnol. 42: 285-292). Briefly, 100 μl of human erythrocytes, after being washed three times with PBS, was added to each well of 96-well microplates, mixed with 100 μl of each of samples having various concentrations, and incubated at 37° C. for 30 min. Subsequently, the reaction mixture was centrifuged for 10 min (1,500 rpm). After 100 μl of the supernatant was transferred to new microtiter plates, absorbance was read at 414 nm to analyze hemoglobin release according to hemolysis. DMSO (2%) was used as a solvent control for the samples while Triton X-100 (1 mg/ml) served as a control for hemolysis. Hemolysis activity was calculated according to the following equation: (%)Hemolysis=[(Abs. S−Abs. C)/(Abs. T−Abs. C)]×100
# Abs. S: Absorbance of sample
# Abs. C: Absorbance of DMSO
# Abs. T: Absorbance of Triton X-100 added control
# [4] = system: Human enriched platelets; test: Platelet aggregation inhibition activity (collagen, whole-blood aggregometer); format: cell-based; conditions: for Platelet Aggregation Activity: AUC sample/AUC DMSO x 100; for Platelet Aggregation Curve: Amplitude / Platelet Aggregation Curve: Area under curve / Platelet Aggregation Curve: Lag time / Platelet Aggregation Curve: Slope: collagen-induced
# Method: Platelet Aggregation Inhibition Activity Human enriched platelets were used. They were washed once with a washing buffer (138 mM NaCl, 2.7 mM KCl, 12 mM NaHCO3, 0.36 mM NaH2PO4, 5.5 mM Glucose, 1 mM EDTA, pH 6.5) and then resuspended in a suspending buffer (138 mM NaCl, 2.7 mM KCl, 12 mM NaHCO3, 0.36 mM NaH2PO4, 5.5 mM Glucose, 0.49 mM MgCl2, 0.25% gelatin, pH 7.4). Centrifugation at 3,000 rpm for 10 min was followed by resuspension in a suspending buffer, with the platelets adjusted to the density of 4×10^9/ml. Subsequently, 1 ml of the suspension was incubated with 2.5 μl of collagen for 5 min, after which platelet aggregation was measured at 37° C. using a whole-blood aggregometer (Chrono-log, USA).
# [5] = miscible with oil; cited from earlier work
compound,measurement,setting,value
"O=C(O)c1ccc(O)cc1 [4-Hydroxybenzoic acid, 4-hydroxybenzoic acid]",Blood coagulation inhibition activity: Prothrombin Time,[1]; 0.5 mg/ml,0.99 ± 0.00
same,Blood coagulation inhibition activity: aPTT,[2]; 0.5 mg/ml,0.94 ± 0.15
"C[C@@H]1[C@H](O)[C@@H](C)/C=C/C=C/C=C/C=C/C=C/C=C/C=C/[C@H](O[C@@H]2O[C@H](C)[C@@H](O)[C@H](N)[C@@H]2O)C[C@@H]2O[C@](O)(C[C@@H](O)C[C@@H](O)[C@H](O)CC[C@@H](O)C[C@@H](O)CC(=O)O[C@H]1C)C[C@H](O)[C@H]2C(=O)O [Amphotericin B, amphotericin B]",Human hemolytic activity,"[3]; 0.003 mg/ml, flower section Table 3",26.5 ± 9.6%
same,Human hemolytic activity,"[3]; 0.006 mg/ml, flower section Table 3",38.0 ± 0.7%
same,Human hemolytic activity,"[3]; 0.00625 mg/ml, flower section Table 6",38.0 ± 0.7%
same,Human hemolytic activity,"[3]; 0.0125 mg/ml, flower section Table 6",48.2 ± 5.9%
same,Human hemolytic activity,"[3]; 0.0125 mg/ml, leaf section Table 4",48.2 ± 5.9%
same,Human hemolytic activity,"[3]; 0.025 mg/ml, flower section Table 3",59.5 ± 6.3%
same,Human hemolytic activity,"[3]; 0.025 mg/ml, flower section Table 3, listed as amphotericin B",≥ 50%
same,Human hemolytic activity,"[3]; 0.025 mg/ml, flower section Table 6",59.5 ± 6.3%
same,Human hemolytic activity,"[3]; 0.025 mg/ml, leaf section Table 4",59.5 ± 6.3%
same,Human hemolytic activity,"[3]; 0.025 mg/ml, leaf section Table 4, listed as amphotericin B",≥ 50%
same,Human hemolytic activity,"[3]; 0.05 mg/ml, flower section Table 3",80.7 ± 7.3%
same,Human hemolytic activity,"[3]; 0.05 mg/ml, flower section Table 6",80.7 ± 7.3%
same,Human hemolytic activity,"[3]; 0.05 mg/ml, leaf section Table 4",80.7 ± 7.3%
same,Human hemolytic activity,"[3]; 0.1 mg/ml, flower section Table 3",95.8 ± 0.3%
same,Human hemolytic activity,"[3]; 0.1 mg/ml, flower section Table 6",95.8 ± 0.3%
same,Human hemolytic activity,"[3]; 0.1 mg/ml, leaf section Table 4",95.8 ± 0.3%
"CC(=O)Oc1ccccc1C(=O)O [Aspirin, aspirin]",Platelet Aggregation Activity,[4]; 0.125 mg/ml,82.2%
same,Platelet Aggregation Curve: Amplitude,[4]; 0.125 mg/ml,14 ohm
same,Platelet Aggregation Curve: Area under curve,[4]; 0.125 mg/ml,78.0
same,Platelet Aggregation Curve: Lag time,[4]; 0.125 mg/ml,35 s
same,Platelet Aggregation Curve: Slope,[4]; 0.125 mg/ml,2
same,Platelet Aggregation Activity,[4]; 0.25 mg/ml,49.7%
same,Platelet Aggregation Curve: Amplitude,[4]; 0.25 mg/ml,8 ohm
same,Platelet Aggregation Curve: Area under curve,[4]; 0.25 mg/ml,47.2
same,Platelet Aggregation Curve: Lag time,[4]; 0.25 mg/ml,128 s
same,Platelet Aggregation Curve: Slope,[4]; 0.25 mg/ml,1
"CC1=CCC2C(C1)C2(C)C (stereo not shown) [Extract 3-Carene, 3-carene]",Blood coagulation inhibition activity: Prothrombin Time,[1]; 0.5 mg/ml,1.05 ± 0.02
same,Blood coagulation inhibition activity: Prothrombin Time,[1]; 0.75 mg/ml,1.29 ± 0.00
same,Blood coagulation inhibition activity: Prothrombin Time,[1]; 1.0 mg/ml,1.43 ± 0.09
same,Blood coagulation inhibition activity: Prothrombin Time,"[1]; 1.0 mg/ml, listed as 3-carene",1.43
same,Solubility in water,[5],not soluble in water
same,Blood coagulation inhibition activity: aPTT,[2]; 0.5 mg/ml,1.23 ± 0.05
same,Blood coagulation inhibition activity: aPTT,[2]; 0.75 mg/ml,1.61 ± 0.03
same,Blood coagulation inhibition activity: aPTT,[2]; 1.0 mg/ml,2.26 ± 0.08
same,Blood coagulation inhibition activity: aPTT,"[2]; 1.0 mg/ml, listed as 3-carene",2.26
Triton X-100,Human hemolytic activity,"[3]; 1.0 mg/ml, 37° C. 30 min, leaf section Table 4",100% and 100.0 ± 0.1%
same,Human hemolytic activity,"[3]; 1.0 mg/ml, flower section Table 3",100% and 100.6 ± 0.8%
same,Human hemolytic activity,"[3]; 1.0 mg/ml, flower section Table 6",100.6 ± 0.8%
